How the values were obtained:
Assay in all cases: relative viability (nuclei count vs DMSO), 5 days (fraction); higher = more cells survive
Omipalisib + AZD7762 = compound: COc1ncc(-c2ccc3nccc(-c4ccnnc4)c3c2)cc1NS(=O)(=O)c1ccc(F)cc1F [Omipalisib] + NC(=O)Nc1cc(-c2cccc(F)c2)sc1C(=O)N[C@H]1CCCNC1 [AZD7762] (partner 0.2 µM)
Method in brief: (§1)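 Relative viability divides the nuclei count in treated wells by that in vehicle wells. Lung cancer cell lines were seeded in 1536-well plates, dosed by pin tool the next day, and fixed and stained after 5 days in one step with final 0.05% Triton X-100, 1% formaldehyde and 1 ug/ml Hoechst. Dosing was a single drug or a fixed anchor-drug dose plus five library-drug doses (not always all listed) in √10 steps, and values are medians of duplicate plates imaged at 4×.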

Omipalisib + Crizotinib = compound: COc1ncc(-c2ccc3nccc(-c4ccnnc4)c3c2)cc1NS(=O)(=O)c1ccc(F)cc1F [Omipalisib] + C[C@@H](Oc1cc(-c2cnn(C3CCNCC3)c2)cnc1N)c1c(Cl)ccc(F)c1Cl [Crizotinib] (partner 1 µM)
Method in brief: as §1

Omipalisib + Pemetrexed = compound: COc1ncc(-c2ccc3nccc(-c4ccnnc4)c3c2)cc1NS(=O)(=O)c1ccc(F)cc1F [Omipalisib] + Nc1nc2[nH]cc(CCc3ccc(C(=O)N[C@@H](CCC(=O)O)C(=O)O)cc3)c2c(=O)[nH]1 [Pemetrexed] (partner 0.2 µM)
Method in brief: as §1

Omipalisib + Vorinostat = compound: COc1ncc(-c2ccc3nccc(-c4ccnnc4)c3c2)cc1NS(=O)(=O)c1ccc(F)cc1F [Omipalisib] + O=C(CCCCCCC(=O)Nc1ccccc1)NO [Vorinostat] (partner 1 µM)
Method in brief: as §1

Omipalisib + Luminespib = compound: COc1ncc(-c2ccc3nccc(-c4ccnnc4)c3c2)cc1NS(=O)(=O)c1ccc(F)cc1F [Omipalisib] + CCNC(=O)c1noc(-c2cc(C(C)C)c(O)cc2O)c1-c1ccc(CN2CCOCC2)cc1 [Luminespib] (partner 0.01 µM)
Method in brief: as §1

Omipalisib + Navitoclax = compound: COc1ncc(-c2ccc3nccc(-c4ccnnc4)c3c2)cc1NS(=O)(=O)c1ccc(F)cc1F [Omipalisib] + CC1(C)CCC(c2ccc(Cl)cc2)=C(CN2CCN(c3ccc(C(=O)NS(=O)(=O)c4ccc(N[C@H](CCN5CCOCC5)CSc5ccccc5)c(S(=O)(=O)C(F)(F)F)c4)cc3)CC2)C1 [Navitoclax] (partner 0.5 µM)
Method in brief: as §1

| Cell Line | relative viability (Omipalisib + AZD7762; first compound 0.0003 µM) | relative viability (Omipalisib + AZD7762; first compound 0.003 µM) | relative viability (Omipalisib + AZD7762; first compound 0.03 µM) | relative viability (Omipalisib + Crizotinib; first compound 0.0003 µM) | relative viability (Omipalisib + Crizotinib; first compound 0.003 µM) | relative viability (Omipalisib + Crizotinib; first compound 0.03 µM) | relative viability (Omipalisib + Pemetrexed; first compound 0.0003 µM) | relative viability (Omipalisib + Pemetrexed; first compound 0.003 µM) | relative viability (Omipalisib + Pemetrexed; first compound 0.03 µM) | relative viability (Omipalisib + Vorinostat; first compound 0.0003 µM) | relative viability (Omipalisib + Vorinostat; first compound 0.003 µM) | relative viability (Omipalisib + Vorinostat; first compound 0.03 µM) | relative viability (Omipalisib + Luminespib; first compound 0.0003 µM) | relative viability (Omipalisib + Luminespib; first compound 0.003 µM) | relative viability (Omipalisib + Luminespib; first compound 0.03 µM) | relative viability (Omipalisib + Navitoclax; first compound 0.0003 µM) | relative viability (Omipalisib + Navitoclax; first compound 0.003 µM) | relative viability (Omipalisib + Navitoclax; first compound 0.03 µM) |
| --- | --- | --- | --- | --- | --- | --- | --- | --- | --- | --- | --- | --- | --- | --- | --- | --- | --- | --- |
| CAL-12T | 0.705 | 0.906 | 0.615 | 0.574 | 0.676 | 0.436 | 1.17 | 1.15 | 0.721 | 0.666 | 0.386 | 0.34 | 0.319 | 0.194 | 0.107 | 1.1 | 1.17 | 0.466 |
| NCI-H647 | 0.403 | 0.322 | 0.215 | 0.979 | 0.921 | 0.443 | 0.189 | 0.158 | 0.183 | 0.304 | 0.368 | 0.295 | 0.233 | 0.16 | 0.13 | 0.873 | 0.86 | 0.542 |
| HOP-62 | 0.532 | 0.55 | 0.438 | 0.817 | 1 | 0.693 | 0.286 | 0.354 | 0.302 | 0.563 | 0.511 | 0.323 | 0.961 | 1.05 | 0.883 | 1.1 | 1.19 | 0.81 |
| NCI-H441 | 1.02 | 1.02 | 0.717 | 0.462 | 0.32 | 0.367 | 0.294 | 0.283 | 0.237 | 0.783 | 0.526 | 0.399 | 0.207 | 0.28 | 0.234 | 0.547 | 0.527 | 0.552 |
| LXF-289 | 1.11 | 1.26 | 0.911 | 0.846 | 0.924 | 0.712 | 0.938 | 1.05 | 0.804 | 0.771 | 0.905 | 0.561 | 0.536 | 0.456 | 0.232 | 0.947 | 1 | 0.739 |
| NCI-H1734 | 0.495 | 0.321 | 0.201 | 0.574 | 0.38 | 0.213 | 0.419 | 0.431 | 0.402 | 0.683 | 0.466 | 0.35 | 0.208 | 0.203 | 0.171 | 0.763 | 0.444 | 0.275 |
| NCI-H838 | 0.895 | 0.828 | 0.725 | 0.767 | 0.57 | 0.354 | 0.25 | 0.229 | 0.214 | 0.678 | 0.639 | 0.557 | 0.332 | 0.269 | 0.203 | 1.1 | 0.997 | 0.501 |
| NCI-H2405 | 0.725 | 0.484 | 0.312 | 0.852 | 0.769 | 0.408 | 1.12 | 0.718 | 0.444 | 1 | 0.667 | 0.418 | 0.661 | 0.392 | 0.298 | 0.812 | 0.618 | 0.323 |

Source: the supplement of paper PMC10307832
